Data published in US10647664B2, “Substituted hydroxamic acid compounds” (Duke University, priority 2013, dated 2020).
In brackets after ≈: the same amount, converted by molar mass.

Experiments:
[1] = tested on: K. pneumonia (43816); test: MIC, K. pneumonia (43816); format: cell-based
Experimental: (§1) MICs are determined according to the NCCLS protocol using 96-well plates. Briefly, diluted bacterial cells (10^6 cells/mL) are added into each well of the 96-well plates containing LB medium with 5% DMSO and various concentrations of the compound of disclosure. After incubation of the plates for 22 hours at 37° C., [4,5-dimethylthiazol-2-yl]-2,5-diphenyltetrazolium bromide solution (MTT) is added (final concentration, 0.2 mg/mL) and incubated at 37° C. for another 3 hrs. MIC is determined as the lowest concentration of an antibiotic that prevented color change (yellow to purple).
(§2) Additional results of minimum inhibitory concentrations (MICs) using V. cholera (P4), S. typhimurium (LT2), and K. pneumonia (43816) are shown in Table 2

[2] = tested on: wild-type E. coli (W3110); test: Minimum inhibitory concentration (MIC), E. coli W3110; format: cell-based; conditions: LB medium, 5% DMSO, 22 hours at 37° C., MTT; for MIC: Escherichia coli, 22 h
[3] = tested on: V. cholera (P4); test: MIC, V. cholera (P4); format: cell-based; design: unit not given beside the values
Experimental: as §1, §2

[4] = tested on: S. typhimurium (LT2); test: MIC, S. typhimurium (LT2); format: cell-based
Experimental: as §1, §2

[5] = tested on: P. aeruginosa PA01; test: MIC, P. aeruginosa PA01; format: cell-based; conditions: Pseudomonas aeruginosa
[6] = tested on: F. novicida U112 (FNU112); test: microbe, parasite or virus in culture; format: cell-based; conditions: Francisella tularensis, read-out: MIC FNU112, F. novicida U112
[7] = tested on: N. gonorrhoeae 35/02 (drug-resistant strain); conditions: N. gonorrhoeae strain 35/02; description of the strain's resistance; cited from earlier work

Row | Compound | MIC [2] [µg/mL] | MIC ([5]; PA01) [µg/mL] | MIC [6] [µg/mL] | other results
1 | C[C@@H](O)[C@](C)(NC(=O)c1ccc(C#CC#Cc2ccc(N)cc2)cc1)C(=O)NO [Example 1, 4-((4-aminophenyl)buta-1,3-diynyl)-N-(3-hydroxy-1-(hydroxyamino)-2-methyl-1-oxobutan-2-yl)benzamide] | 0.18 (≈ 0.46 µM) | 15 (≈ 38.3 µM) | – | MIC K. pneumonia (43816) [1]: 0.6; MIC E. coli W3110 [2]: 0.13 µg/mL (≈ 0.332 µM); MIC V. cholera (P4) [3]: 0.03; MIC S. typhimurium (LT2) [4]: 0.144; MIC ([5]; PA01, P. aeruginosa PA01): 6.25 µg/mL (≈ 16 µM)
2 | CC(NC(=O)c1ccc(C#Cc2ccc(CN3CCOCC3)cc2)cc1)(C(=O)NO)C(C)(O)C(F)F (centres unmarked) [Example 2, N-(4,4-difluoro-3-hydroxy-1-(hydroxyamino)-2,3-dimethyl-1-oxobutan-2-yl)-4-((4-(morpholinomethyl)phenyl)ethynyl)benzamide] | 6.25 (≈ 12.5 µM) | – | 50 (≈ 99.7 µM) | –
3 | C[C@@](O)(C(F)F)[C@H](NCCCc1ccc(C#Cc2ccccc2)cc1)C(=O)NO [Example 3, (2S,3S)-4,4-difluoro-N,3-dihydroxy-3-methyl-2-((3-(4-(phenylethynyl)phenyl)propyl)amino)butanamide] | 1.6 (≈ 3.98 µM) | – | – | –
4 | C[C@@](O)(C(F)F)[C@H](NC(=O)c1ccc(C#Cc2ccc(CN3CCNCC3)cc2)cc1)C(=O)NO [Example 19] | > 1 | > 5 | 2.5 (≈ 5.14 µM) | –
5 | C[C@@](O)(C(F)F)[C@H](NC(=O)c1ccc(C#CC#CCN2CCOCC2)cc1)C(=O)NO [Example 21, N-((2S,3S)-4,4-difluoro-3-hydroxy-1-(hydroxyamino)-3-methyl-1-oxobutan-2-yl)-4-(5-morpholinopenta-1,3-diyn-1-yl)benzamide] | 0.46 (≈ 1.06 µM) | 1.56 (≈ 3.58 µM) | > 5 | –
6 | CC(C#CC#Cc1ccc(C(=O)N[C@H](C(=O)NO)[C@](C)(O)C(F)F)cc1)N1CCOCC1 (stereo partly drawn) [Example 22, N-((2S,3S)-4,4-difluoro-3-hydroxy-1-(hydroxyamino)-3-methyl-1-oxobutan-2-yl)-4-(5-morpholinohexa-1,3-diyn-1-yl)benzamide] | > 1 | 5 (≈ 11.1 µM) | > 5 | –
7 | CC(CCn1ccc(C#Cc2ccccc2)cc1=O)(C(=O)NO)S(C)(=O)=O (centres unmarked) [Example 30, N-hydroxy-2-methyl-2-(methylsulfonyl)-4-(2-oxo-4-(phenylethynyl)pyridin-1 (2H)-yl)butanamide] | < 0.78 | < 0.78 | – | –
8 | CO/N=C(\C(=O)N[C@@H]1C(=O)N2C(C(=O)O)=C(CSc3nc(=O)c(=O)[nH]n3C)CS[C@H]12)c1csc(N)n1 [ceftriaxone] | – | – | – | MIC [7]: 0.12 µg/mL (≈ 0.216 µM)
9 | penicillin | – | – | – | MIC [7]: 6 µg/mL
